Patent US11072585B2 (PharmAkea, Inc., priority 2015, dated 2021)
Where a name gives a salt, the structure may show the parent alone.

Legend:
[1] = test system: bleomycin-induced lung fibrosis in C57Bl/6 male mice; assay: Mouse oropharyngeal bleomycin model of lung fibrosis; format: in vivo; conditions: for efficacy in bleomycin lung fibrosis model, prophylactic dosing: dosed prophylactically at 60 mg/kg p.o.; for efficacy in bleomycin lung fibrosis model, therapeutic dosing: dosed therapeutically at 60 mg/kg p.o.
Protocol: Example B-3: Mouse Oropharyngeal Bleomycin Model of Lung Fibrosis
Lung fibrosis is induced in C57Bl/6 male mice by administering bleomycin (0.1-4 U/kg) via oropharyngeal instillation. Mice are either pretreated with vehicle or test compound (1 day to 1 hour) orally, intraperitoneally, intravenously or subcutaneously before bleomycin installation (prophylactic dosing) or 7-14 days post bleomycin instillation (therapeutic dosing). The route and frequency of dosing are based on previously determined pharmacokinetic properties for the LOXL2 inhibitor in mouse. After bleomycin instillation animals are monitored daily for weight loss and clinical signs for 14-28 days prior to sacrifice. Animals are euthanized at study termination and weighed and blood (for isolation of plasma) and bronchoalveolar lavage are collected and frozen for subsequent analyses. Lungs are removed, weighed, then either inflated and fixed by instillation of 10% formalin and prepared for histological examination or homogenized in 1 ml PBS for collagen determination using a hydroxyproline assay. For histological examination, lung slices are stained with Masson's trichrome or Picro-Sirius red to measure cross-linked collagen as an indicator of fibrosis and an Ashcroft score of lung fibrotic and inflammatory damage determined. In addition, immunohistochemistry of fibrotic proteins such as a-smooth muscle actin can be recorded. For lung hydroxyproline content, 0.5 ml of the lung homogenate is removed and added to 0.5 ml 12 N HCl and the samples heated at 120° C. overnight. After the acid hydrolysis, 25-100 μl of the supernatant is dried down, resuspended in 25 μl water and the hydroxyproline content determined by the addition of 0.5 ml Chloramine T solution (140 mg Chloramine T in 6.5 ml ddH2O+1 ml n-propanol+2.5 ml 1M sodium acetate) and incubation at room temperature for 20 min. After the incubation, 0.5 ml Erlich's solution (1.48 g of 4-(dimethylamino(benzaldehyde) in 7 ml n-propanol+2.88 ml 60% perchloric acid and 0.12 ml ddH2O) is added and incubated at 65° C. for 15 min before reading the absorbance at 550 nm. The concentration of hydroxyproline in each […] is determined from a hydroxyproline (purchased from Sigma) standard curve.

[2] = molecular target: human LOXL2 (Homo sapiens (Human), UniProt Q9Y4K0); assay: Human LOXL2 amine oxidase activity assay (Amplex Red); format: biochemical; conditions: concentrated conditioned media from CHO cells stably expressing human LOXL2; 2 h at 37° C. with compound; DAP substrate
Procedure, shortened: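 Concentrated conditioned medium from CHO cells stably expressing human LOXL2 was preincubated with compound for 2 h at 37 °C in 50 mM borate, pH 8. 1,5-diaminopentane substrate and Amplex Red/HRP were then added. Fluorescence (544/590) was read kinetically every 2 min for 1 h, with activity taken from the linear slope.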

Chain of human LOXL2 (Q9Y4K0 26-774): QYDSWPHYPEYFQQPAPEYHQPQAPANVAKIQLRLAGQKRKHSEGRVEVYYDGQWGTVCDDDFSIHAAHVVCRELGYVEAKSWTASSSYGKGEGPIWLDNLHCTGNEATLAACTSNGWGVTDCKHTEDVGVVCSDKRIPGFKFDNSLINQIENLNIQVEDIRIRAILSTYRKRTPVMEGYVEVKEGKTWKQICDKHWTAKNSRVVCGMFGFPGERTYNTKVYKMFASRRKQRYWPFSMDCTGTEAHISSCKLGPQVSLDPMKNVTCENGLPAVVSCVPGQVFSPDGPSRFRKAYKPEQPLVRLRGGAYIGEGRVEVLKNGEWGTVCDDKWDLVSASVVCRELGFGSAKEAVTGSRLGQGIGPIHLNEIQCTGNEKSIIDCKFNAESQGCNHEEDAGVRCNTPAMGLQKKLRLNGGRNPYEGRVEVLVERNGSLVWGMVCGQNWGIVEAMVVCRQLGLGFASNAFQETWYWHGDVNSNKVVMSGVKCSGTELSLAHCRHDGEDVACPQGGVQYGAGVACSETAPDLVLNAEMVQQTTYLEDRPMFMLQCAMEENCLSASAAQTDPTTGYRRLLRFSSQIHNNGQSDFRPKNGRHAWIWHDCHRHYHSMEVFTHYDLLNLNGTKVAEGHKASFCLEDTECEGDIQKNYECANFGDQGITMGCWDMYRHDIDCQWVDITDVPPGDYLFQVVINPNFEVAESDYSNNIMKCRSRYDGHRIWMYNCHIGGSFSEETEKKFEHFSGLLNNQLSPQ

Compound	IC50 [2] [nM]	efficacy in bleomycin lung fibrosis model, prophylactic dosing [1]	efficacy in bleomycin lung fibrosis model, therapeutic dosing [1]
CS(=O)(=O)CCNC(=O)c1cccc(Oc2cc(CN)cc(C(F)(F)F)n2)c1.Cl [Compound 1-30, 3-((4-(Aminomethyl)-6-(trifluoromethyl)pyridin-2-yl)oxy)-N-(2-(methylsulfonyl)ethyl)benzamide hydrochloride]	< 300	efficacious	
Cl.NCc1cc(Oc2cccc(C(=O)N3C[C@@H](O)[C@H](F)C3)c2)nc(C(F)(F)F)c1 (stereo in doubt) [Compound 1-19, Racemic-trans-(3-((4-(aminomethyl)-6-(trifluoromethyl)pyridin-2-yl)oxy)phenyl)(3-fluoro-4-hydroxypyrrolidin-1-yl)methanone hydrochloride]	< 300	efficacious	efficacious
Cl.NCc1cc(Oc2cccc(C(=O)NCCn3cnnn3)c2)nc(C(F)(F)F)c1 [Compound 1-15, N-(2-(1H-Tetrazol-1-yl)ethyl)-3-((4-(aminomethyl)-6-(trifluoromethyl)pyridin-2-yl)oxy)benzamide hydrochloride]	< 300	efficacious	
Cl.NCc1cc(Oc2cccc(C(=O)Nc3ccccc3)c2)nc(C(F)(F)F)c1 [Compound 1-7, 3-((4-(Aminomethyl)-6-(trifluoromethyl)pyridin-2-yl)oxy)-N-phenylbenzamide hydrochloride]	< 300	efficacious	
C#C[C@@H](CC(=O)OC)NC(=O)c1cccc(Oc2cc(CN)cc(C(F)(F)F)n2)c1 [Compound 1-222, Methyl (R)-3-(3-((4-(aminomethyl)-6-(trifluoromethyl)pyridin-2-yl)oxy)benzamido)pent-4-ynoate hydrochloride]	< 300		
CC(C)(O)CNC(=O)c1cccc(Oc2cc(CN)cc(C(F)(F)F)n2)c1 [Compound 1-32, 3-((4-(Aminomethyl)-6-(trifluoromethyl)pyridin-2-yl)oxy)-N-(2-hydroxy-2-methylpropyl)benzamide hydrochloride]	< 300		
NCc1cc(Oc2cccc(C(=O)N3CCc4ccccc4C3)c2)nc(C(F)(F)F)c1 [Compound 1-11, (3-((4-(Aminomethyl)-6-(trifluoromethyl)pyridin-2-yl)oxy)phenyl)(3,4-dihydroisoquinolin-2(1H)-yl)methanone hydrochloride]	< 300		
N′-(4-(Aminomethyl)-6-(trifluoromethyl)pyridin-2-yl)-N^3-(2-(methylsulfonyl)ethyl)isophthalamide trifluoroacetate [Compound 1-242]	< 300		
CN(C)[C@@H]1CN(C(=O)c2cccc(Oc3cc(CN)cc(C(F)(F)F)n3)c2)C[C@H]1O (racemic) [Compound 1-23, Racemic-trans-(3-((4-(aminomethyl)-6-(trifluoromethyl)pyridin-2-yl)oxy)phenyl)(-3-(dimethylamino)-4-hydroxypyrrolidin-1-yl)methanone hydrochloride]	< 300		
NCc1cc(Oc2cccc(C(=O)NC[C@@H](O)CO)c2)nc(C(F)(F)F)c1 [Compound 1-33, (R)-3-((4-(Aminomethyl)-6-(trifluoromethyl)pyridin-2-yl)oxy)-N-(2,3-dihydroxypropyl)benzamide hydrochloride]	< 300		
N′-(4-(Aminomethyl)-6-(trifluoromethyl)pyridin-2-yl)-N^3-phenylisophthalamide trifluoroacetate [Compound 1-240]	< 300		
CCc1ccc(NC(=O)c2cccc(Oc3cc(CN)cc(C(F)(F)F)n3)c2)cc1 [Compound 1-246, 3-((4-(Aminomethyl)-6-(trifluoromethyl)pyridin-2-yl)oxy)-N-(4-ethylphenyl)benzamide hydrochloride]	< 300		
C#C[C@H](CC(=O)OC)NC(=O)c1cccc(Oc2cc(CN)cc(C(F)(F)F)n2)c1 [Compound 1-220, Methyl (S)-3-(3-((4-(aminomethyl)-6-(trifluoromethyl)pyridin-2-yl)oxy)benzamido)pent-4-ynoate]	< 300		
NCc1cc(Oc2cccc(C(=O)NCCO)c2)nc(C(F)(F)F)c1 [Compound 1-16, 3-((4-(Aminomethyl)-6-(trifluoromethyl)pyridin-2-yl)oxy)-N-(2-hydroxyethyl)benzamide hydrochloride]	< 300		
Cc1cc(=O)n(Cc2cc(CN)cc(C(F)(F)F)n2)c(=O)n1Cc1ccccc1 [Compound 1-134, 3-((4-(Aminomethyl)-6-(trifluoromethyl)pyridin-2-yl)methyl)-1-benzyl-6-methylpyrimidine-2,4(1H,3H)-dione hydrochloride]	< 300		

Continued, in another order:

IC50 [2] [nM]	Compound	efficacy in bleomycin lung fibrosis model, prophylactic dosing [1]	efficacy in bleomycin lung fibrosis model, therapeutic dosing [1]
< 300	Cl.NCc1cc(Oc2cccc(C(=O)N3C[C@H](O)[C@@H](F)C3)c2)nc(C(F)(F)F)c1 (stereo in doubt) [Compound 1-20, (S,S)-trans-(3-((4-(Aminomethyl)-6-(trifluoromethyl)pyridin-2-yl)oxy)phenyl)(3-fluoro-4-hydroxypyrrolidin-1-yl)methanone hydrochloride]	efficacious	efficacious
< 300	NCc1cc(Oc2cccc(C(=O)NCC3(O)CCC3)c2)nc(C(F)(F)F)c1 [Compound 1-201, 3-((4-(Aminomethyl)-6-(trifluoromethyl)pyridin-2-yl)oxy)-N-((1-hydroxycyclobutyl)methyl)benzamide hydrochloride]		
< 300	NCc1cc(Oc2cccc(C(=O)N3C[C@@H](F)[C@@H](O)C3)c2)nc(C(F)(F)F)c1 (single isomer, unassigned) [Compound 1-251, (R,S) or (S,R)-cis-(3-((4-(Aminomethyl)-6-(trifluoromethyl)pyridin-2-yl)oxy)phenyl)(3-fluoro-4-hydroxypyrrolidin-1-yl)methanone hydrochloride]		
> 1000	NCc1cc(Oc2cccc(C(=O)N3CCC[C@H]3C(=O)O)c2)nc(C(F)(F)F)c1 [Compound 1-24, (S)-1-(3-((4-(Aminomethyl)-6-(trifluoromethyl)pyridin-2-yl)oxy)benzoyl)pyrrolidine-2-carboxylic acid hydrochloride]		
< 300	NCc1cc(Oc2cccc(C(=O)N3CCC[C@H](CO)C3)c2)nc(C(F)(F)F)c1 [Compound 1-203, (S)-(3-((4-(Aminomethyl)-6-(trifluoromethyl)pyridin-2-yl)oxy)phenyl)(3-(hydroxymethyl)piperidin-1-yl)methanone hydrochloride]		
300 to 1000	NCc1cc(Oc2cccc3c2ccn3CC(=O)N2CCCCC2)nc(C(F)(F)F)c1 [Compound 1-56, 2-(4-((4-(Aminomethyl)-6-(trifluoromethyl)pyridin-2-yl)oxy)-1H-indol-1-yl)-1-(piperidin-1-yl)ethanone]		
< 300	NCc1cc(O[C@H]2CCCN(C(=O)c3cncnc3)C2)nc(C(F)(F)F)c1 [Compound 1-50, (S)-(3-((4-(Aminomethyl)-6-(trifluoromethyl)pyridin-2-yl)oxy)piperidin-1-yl)(pyrimidin-5-yl)methanone trifluoroacetate]		
< 300	NCc1cc(OCC2CCN(C(=O)Nc3ccccc3)CC2)nc(C(F)(F)F)c1 [Compound 1-42, 4-(((4-(Aminomethyl)-6-(trifluoromethyl)pyridin-2-yl)oxy)methyl)-N-phenylpiperidine-1-carboxamide trifluoroacetate]		
